These compounds were tested against T1, adenosine (purine) receptors (Cavia porcellus, UniProt P47745) (assay: Guinea pig ileum twitch test: purine receptor antagonism against 2-chloroadenosine (Schild regression)). Conditions: agonist 2-chloroadenosine.
T1 construct: Ilea were removed from sacrificed guinea pigs; from tissue; host or cells: guinea pig ileum
T1 sequence (P47745 1-326): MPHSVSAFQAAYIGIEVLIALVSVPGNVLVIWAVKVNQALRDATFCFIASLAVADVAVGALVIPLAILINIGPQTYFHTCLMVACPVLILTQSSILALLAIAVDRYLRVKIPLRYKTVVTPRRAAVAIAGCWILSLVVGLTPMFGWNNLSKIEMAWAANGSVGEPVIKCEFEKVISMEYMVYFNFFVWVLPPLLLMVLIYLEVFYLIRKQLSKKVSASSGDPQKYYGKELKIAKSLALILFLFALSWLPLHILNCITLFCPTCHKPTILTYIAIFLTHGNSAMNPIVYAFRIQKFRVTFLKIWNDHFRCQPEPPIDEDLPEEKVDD
Method: Accordingly, a representative number of compounds of the present invention were tested for their ability to antagonise the purine receptors using the guinea pig ileum test system.
Ilea were removed from sacrificed guinea pigs and placed in organ baths containing oxygenated Krebs-Henseleit buffer. After equilibration, the ilea were stimulated to contract (twitch contraction) using an electrical field-stimulus of 0.1 Hz, 0.05 ms duration and maximal voltage. Under these conditions, the twitch contraction results from the release of acetylcholine.
Concentration response curves to the purine agonist, 2-chloroadenosine, were determined first in the absence and then in the presnce of multiple concentrations of the compounds of the invention. One concentration of each compound was used per tissue. Quantification of purine receptor antagonism was accomplished using the Schild regression technique, i.e. plots of log (dose-ratio-l) vs log compound concentration, and the pA2 determined by regression of the data points to the x-intercept, where log (dose-ratio-l) is zero.

CCCn1c(=O)n(C)c(=O)c2nc(-c3ccc(/C=C/C(=O)O)cc3)[nH]c21 [Example 11, (E)-4-(1,2,3,6-tetrahydro-1-methyl-2,6-dioxo-3-propyl-9H-purin-8-yl)cinnamic acid] and CCCn1c(=O)c2nc(-c3ccc(/C=C/C(=O)O)cc3)[nH]c2n(CCC)c1=O [Example 6, (E)-4-(1,2,3,6-tetrahydro-2,6-dioxo-1,3-dipropyl-9H-purin-8-yl)cinnamic acid] are within 0.2 log units of each other in “pA2 guinea pig ileum (slope): slope of Schild regression” value (from here on “pA2 guinea pig ileum (slope): slope”): 1.0 for the first, 0.9 for the second.

CCCCn1c(=O)c2nc(-c3ccc(/C=C/C(=O)O)cc3)[nH]c2n(CCCC)c1=O [Example 14, (E)-4-(1,3-dibutyl-1,2,3,6-tetrahydro-2,6-dioxo-9H-purin-8-yl)cinnamic acid] and CC(C)Cn1c(=O)c2nc(-c3ccc(/C=C/C(=O)O)cc3)[nH]c2n(CC(C)C)c1=O [Example 19, (E)-4-(1,2,3,6-tetrahydro-1,3-diisobutyl-2,6-dioxo-9H-purin-8-yl) cinnamic acid] are the same in “pA2 guinea pig ileum (slope): slope” value: 1.0 for the first, 1.0 for the second.

Cn1c(=O)c2nc(-c3ccc(/C=C/C(=O)O)cc3)[nH]c2n(Cc2ccccc2)c1=O [Example 18, (E)-4-(3-benzyl-1,2,3,6-tetrahydro-1-methyl-2,6-dioxo-9H-purin-8-yl) cinnamic acid] and O=C(O)/C=C/c1ccc(-c2nc3c(=O)n(Cc4ccccc4)c(=O)n(Cc4ccccc4)c3[nH]2)cc1 [Example 15, (E)-4-(1,3-dibenzyl-1,2,3,6-tetrahydro-2,6-dioxo-9H-purin-8 yl) cinnamic acid] are the same in “pA2 guinea pig ileum (slope): slope” value: 0.9 for the first, 0.9 for the second.

Each compound was assayed on AIDV (assay: Anti-retroviral activity against AIDV). Conditions: in words.
Parameters: species or system AIDV (HTLV III)

For O=C(O)/C=C/c1ccc(-c2nc3c(=O)n(Cc4ccccc4)c(=O)n(Cc4ccccc4)c3[nH]2)cc1 [Example 15, (E)-4-(1,3-dibenzyl-1,2,3,6-tetrahydro-2,6-dioxo-9H-purin-8 yl) cinnamic acid], the “anti-retroviral activity, especially against AIDV” value was “especially potent activity against AIDV”.
